Experimental data reported in patent US9999619B2, “Piperidin-4-yl azetidine derivatives as JAK1 inhibitors” (Incyte Corporation, priority 2010, dated 2018).

Assays:
[1] = molecular target: human JAK1 (a.a. 837-1142) (Homo sapiens, UniProt P23458); assay: In vitro JAK kinase assay (HTRF, phosphorylation of a biotinylated peptide), JAK1; format: biochemical; settings: measured at 1 mM ATP
Experimental: (§1) Compounds herein were tested for inhibitory activity of JAK targets according to the following in vitro assay described in Park et al., Analytical Biochemistry 1999, 269, 94-104. The catalytic domains of human JAK1 (a.a. 837-1142), Jak2 (a.a. 828-1132) and Jak3 (a.a. 781-1124) with an N-terminal His tag were expressed using baculovirus in insect cells and purified. The catalytic activity of JAK1, JAK2 or JAK3 was assayed by measuring the phosphorylation of a biotinylated peptide. The phosphorylated peptide was detected by homogenous time resolved fluorescence (HTRF). […] Reactions were carried out at room temperature for 1 hr and then stopped with 20 μL 45 mM EDTA, 300 nM SA-APC, 6 nM Eu-Py20 in assay buffer (Perkin Elmer, Boston, Mass.). Binding to the Europium labeled antibody took place for 40 minutes and HTRF signal was measured on a Fusion plate reader (Perkin Elmer, Boston, Mass.).

Jak2 (a.a. 828-1132) = Jak2 (a.a. 828-1132) (Homo sapiens (Human), UniProt O60674); assay: In vitro JAK kinase assay (HTRF, phosphorylation of a biotinylated peptide), JAK2; format: biochemical; settings: measured at 1 mM ATP
Experimental: as §1

Sequence of Jak2 (a.a. 828-1132) (O60674 828-1132): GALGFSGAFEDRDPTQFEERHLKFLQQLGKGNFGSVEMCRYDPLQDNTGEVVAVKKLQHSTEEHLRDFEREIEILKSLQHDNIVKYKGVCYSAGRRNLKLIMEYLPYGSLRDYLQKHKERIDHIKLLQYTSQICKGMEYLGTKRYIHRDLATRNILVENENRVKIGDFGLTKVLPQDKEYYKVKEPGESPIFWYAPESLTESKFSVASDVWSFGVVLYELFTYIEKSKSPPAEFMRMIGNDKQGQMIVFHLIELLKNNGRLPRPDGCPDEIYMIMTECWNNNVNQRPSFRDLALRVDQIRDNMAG

IC50 [1] [µM]	IC50 (Jak2 (a.a. 828-1132)) [µM]	SMILES
≤ 0.005	≤ 0.01	Cc1csc(C(=O)N2CCC(N3CC(CC#N)(n4cc(-c5ncnc6[nH]ccc56)cn4)C3)CC2)c1 [Example 79, {1-{1-[(4-meth1-2-thienyl)carbonyl]piperidin-4-yl}-3-[4-(7H-pyrrolo[2,3-d]pyrimidin-4-yl)-1H-pyrazol-1-yl]azetidin-3-yl}acetonitrile]
–	0.01 to 0.05	Cc1ccc(C#N)c(N2CCC(C(=O)N3CCC(N4CC(CC#N)(n5cc(-c6ncnc7[nH]ccc67)cn5)C4)CC3)CC2)n1 [Example 108, 2-{4-[(4-{3-(cyanomethyl)-3-[4-(7H-pyrrolo[2,3-d]pyrimidin-4-yl)-1H-pyrazol-1-yl]azetidin-1-yl}piperidin-1-yl)carbonyl]piperidin-1-yl}-6-methylnicotinonitrile]
–	0.01 to 0.05	CS(=O)(=O)N1CCC(N2CC(CC#N)(n3cc(-c4ncnc5[nH]ccc45)cn3)C2)CC1 [Example 254, {1-[1-(methylsulfonyl)piperidin-4-yl]-3-[4-(7H-pyrrolo[2,3-d]pyrimidin-4-yl)-1H-pyrazol-1-yl]azetidin-3-yl}acetonitrile]
–	0.01 to 0.05	CCS(=O)(=O)N1CCC(N2CC(CC#N)(n3cc(-c4ncnc5[nH]ccc45)cn3)C2)CC1 [Example 255, {1-[1-(ethylsulfonyl)piperidin-4-yl]-3-[4-(7H-pyrrolo[2,3-d]pyrimidin-4-yl)-1H-pyrazol-1-yl]azetidin-3-yl}acetonitrile]
–	0.01 to 0.05	N#CCC1(n2cc(-c3ncnc4[nH]ccc34)cn2)CN(C2CCN(S(=O)(=O)C3CC3)CC2)C1 [Example 256, {1-[1-(cyclopropylsulfonyl)piperidin-4-yl]-3-[4-(7H-pyrrolo[2,3-d]pyrimidin-4-yl)-1H-pyrazol-1-yl]azetidin-3-yl}acetonitrile]
–	0.01 to 0.05	N#CCC1(n2cc(-c3ncnc4[nH]ccc34)cn2)CN(C2CCN(C(=O)OCC3CCCCC3)CC2)C1 [Example 397, cyclohexylmethyl 4-{3-(cyanomethyl)-3-[4-(7H-pyrrolo[2,3-d]pyrimidin-4-yl)-1H-pyrazol-1-yl]azetidin-1-yl}piperidine-1-carboxylate]

Continued, compound first:

SMILES	IC50 [1] [µM]	IC50 (Jak2 (a.a. 828-1132)) [µM]
CC1CC(N2CC(CC#N)(n3cc(-c4ncnc5[nH]ccc45)cn3)C2)CCN1Cc1c(F)cccc1Cl (single isomer, unassigned) [Example 244, {1-[1-(2-chloro-6-fluorobenzyl)-2-methylpiperidin-4-yl]-3-[4-(7H-pyrrolo[2,3-d]pyrimidin-4-yl)-1H-pyrazol-1-yl]azetidin-3-yl}acetonitrile]	0.005 to 0.02	0.01 to 0.05
CC1CC(N2CC(CC#N)(n3cc(-c4ncnc5[nH]ccc45)cn3)C2)CCN1Cc1c(F)cccc1Cl (single isomer, unassigned) [Example 245, {1-[1-(2-chloro-6-fluorobenzyl)-2-methylpiperidin-4-yl]-3-[4-(7H-pyrrolo[2,3-d]pyrimidin-4-yl)-1H-pyrazol-1-yl]azetidin-3-yl}acetonitrile]	0.005 to 0.02	0.01 to 0.05
N#CCC1(n2cc(-c3ncnc4[nH]ccc34)cn2)CN(C2CCN(C(=O)c3ccnc(C(F)(F)F)c3F)CC2)C1 [Example 1, {1-{1-[3-Fluoro-2-(trifluoromethyl)isonicotinoyl]piperidin-4-yl}-3-[4-(7H-pyrrolo[2,3-d]pyrimidin-4-yl)-1H-pyrazol-1-yl]azetidin-3-yl}acetonitrile]	≤ 0.005	> 0.1
N#CCC1(n2cc(-c3ncnc4[nH]ccc34)cn2)CN(C2CCN(C(=O)c3cccc(Cl)c3)CC2)C1 [Example 19, {1-[1-(3-chlorobenzoyl)piperidin-4-yl]-3-[4-(7H-pyrrolo[2,3-d]pyrimidin-4-yl)-1H-pyrazol-1-yl]azetidin-3-yl}acetonitrile]	≤ 0.005	≤ 0.01
CSc1ccc(C(=O)N2CCC(N3CC(CC#N)(n4cc(-c5ncnc6[nH]ccc56)cn4)C3)CC2)cc1F [Example 62, {1-{1-[3-fluoro-4-(methylthio)benzoyl]piperidin-4-yl}-3-[4-(7H-pyrrolo[2,3-d]pyrimidin-4-yl)-1H-pyrazol-1-yl]azetidin-3-yl}acetonitrile]	–	0.05 to 0.1
N#CCC1(n2cc(-c3ncnc4[nH]ccc34)cn2)CN(C2CCN(C(=O)c3ccc(C#N)c(F)c3)CC2)C1 [Example 66, 4-[(4-{3-(cyanomethyl)-3-[4-(7H-pyrrolo[2,3-d]pyrimidin-4-yl)-1H-pyrazol-1-yl]azetidin-1-yl}piperidin-1-yl)carbonyl]-2-fluorobenzonitrile]	–	0.05 to 0.1
COc1cc(C(F)(F)F)sc1C(=O)N1CCC(N2CC(CC#N)(n3cc(-c4ncnc5[nH]ccc45)cn3)C2)CC1 [Example 70, {1-{1-[3-methoxy-5-(trifluoromethyl)-2-thienylcarbonyl]piperidin-4-yl}-3-[4-(7H-pyrrolo[2,3-d]pyrimidin-4-yl)-1H-pyrazol-1-yl]azetidin-3-yl}acetonitrile]	–	≤ 0.01
N#CCC1(n2cc(-c3ncnc4[nH]ccc34)cn2)CN(C2CCN(C(=O)c3ccnc(C(F)(F)F)n3)CC2)C1 [Example 85, [3-[4-(7H-pyrrolo[2,3-d]pyrimidin-4-yl)-1H-pyrazol-1-yl]-1-(1-{[2-(trifluoromethyl)pyrimidin-4-yl]carbonyl}piperidin-4-yl)azetidin-3-yl]acetonitrile]	0.005 to 0.02	> 0.1
N#CCC1(n2cc(-c3ncnc4[nH]ccc34)cn2)CN(C2CCN(C(=O)c3ccc(-c4cccnc4)cc3F)CC2)C1 [Example 120, {1-[1-(2-fluoro-4-pyridin-3-ylbenzoyl)piperidin-4-yl]-3-[4-(7H-pyrrolo[2,3-d]pyrimidin-4-yl)-1H-pyrazol-1-yl]azetidin-3-yl}acetonitrile]	≤ 0.005	≤ 0.01
N#CCC1(n2cc(-c3ncnc4[nH]ccc34)cn2)CN(C2CCN(C(=O)c3ccc(-c4nccs4)c(F)c3)CC2)C1 [Example 122, {1-{1-[3-fluoro-4-(1,3-thiazol-2-yl)benzoyl]piperidin-4-yl}-3-[4-(7H-pyrrolo[2,3-d]pyrimidin-4-yl)-1H-pyrazol-1-yl]azetidin-3-yl}acetonitrile]	–	0.01 to 0.05
N#CCC1(n2cc(-c3ncnc4[nH]ccc34)cn2)CN(C2CC3CCC(C2)N3C(=O)c2ccnc(C(F)(F)F)c2)C1 (stereo not shown) [Example 144, (3-[4-(7H-pyrrolo[2,3-d]pyrimidin-4-yl)-1H-pyrazol-1-yl]-1-{8-[2-(trifluoromethyl)isonicotinoyl]-8-azabicyclo[3.2.1]oct-3-yl}azetidin-3-yl)acetonitrile]	0.005 to 0.02	0.01 to 0.05
N#CCC1(n2cc(-c3ncnc4[nH]ccc34)cn2)CN(C2CC3CCC(C2)N3C(=O)C2CCCC2)C1 (stereo not shown) [Example 145, {1-[8-(cyclopentylcarbonyl)-8-azabicyclo[3.2.1]oct-3-yl]-3-[4-(7H-pyrrolo[2,3-d]pyrimidin-4-yl)-1H-pyrazol-1-yl]azetidin-3-yl}acetonitrile]	0.005 to 0.02	0.01 to 0.05
N#CCC1(n2cc(-c3ncnc4[nH]ccc34)cn2)CN(C2CC3CCC(C2)N3C(=O)C2CCC(F)(F)CC2)C1 (stereo not shown) [Example 148, {1-{8-[(4,4-difluorocyclohexyl)carbonyl]-8-azabicyclo[3.2.1]oct-3-yl}-3-[4-(7H-pyrrolo[2,3-d]pyrimidin-4-yl)-1H-pyrazol-1-yl]azetidin-3-yl}acetonitrile]	–	≤ 0.01
